In US9150632B2 (Indiana University Research and Technology Corporation, priority 2009, dated 2015):
Non-standard residues stand in square brackets, D forms with d. Residues, ends and D or L forms follow the SMILES beside them. *: point of attachment. Myristoyl = CCCCCCCCCCCCCC(=O)*; Aib = CC(C)(N)C(=O)O

How the values were obtained:
glucagon receptor = target: T1, glucagon receptor (Homo sapiens, UniProt P47871); assay: Functional assay-cAMP synthesis, luciferase reporter in HEK293 cells, glucagon receptor; type: cell-based; details: for Glucagon Receptor % relative activity: activity relative to the native hormone at the indicated receptor; for EC50: cAMP induction, in vitro, as in Example 14
T1 construct: expressed in transfected cells; host or cells: HEK293
Protocol: (§1) Peptide absorbance readings were obtained from UV Absorbance measurements at 280 nm on a Genesys 6 Spectrophotometer (Thermo Electron Corporation). Beer's Law was used to calculate solution concentrations based on the number of tryptophan and tyrosine residues in each analog. At the end of the incubation, 100 μL LucLite luminescence substrate reagent was added to each well, the plate sealed and shaken, and placed into a Wallac Trilux luminescence counter for cAMP detection.
(§2) HEK293 cells were co-transfected with the GcgR or GLP-1R cDNAs and a luciferase reporter gene-linked to a cAMP response element (CRE). […] The plate was incubated for 10 min in the dark and light output was quantified on a MicroBeta1450 liquid scintillation counter (Perkin-Elmer, Wellesley, Mass.).

GIP receptor = target: T2, GIP receptor (Homo sapiens, UniProt P48546); assay: Functional assay-cAMP synthesis, luciferase reporter in HEK293 cells, GIP receptor; type: cell-based; details: for GIP Receptor % relative activity: activity relative to the native hormone at the indicated receptor; for EC50: cAMP induction, in vitro, as in Example 14
T2 construct: expressed in transfected cells; host or cells: HEK293
T2 sequence (P48546 22-466): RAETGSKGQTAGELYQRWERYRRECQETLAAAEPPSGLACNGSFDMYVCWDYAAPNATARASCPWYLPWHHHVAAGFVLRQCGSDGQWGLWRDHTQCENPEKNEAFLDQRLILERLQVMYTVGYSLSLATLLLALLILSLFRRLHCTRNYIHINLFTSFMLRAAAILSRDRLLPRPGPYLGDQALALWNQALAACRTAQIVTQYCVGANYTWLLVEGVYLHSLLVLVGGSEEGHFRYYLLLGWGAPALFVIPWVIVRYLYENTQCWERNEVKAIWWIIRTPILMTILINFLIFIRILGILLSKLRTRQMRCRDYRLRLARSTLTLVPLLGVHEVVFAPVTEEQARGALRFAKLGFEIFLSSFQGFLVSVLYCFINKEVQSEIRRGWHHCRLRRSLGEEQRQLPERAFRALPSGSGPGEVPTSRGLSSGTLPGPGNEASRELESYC

GLP-1 receptor [1] = target: T3, GLP-1 receptor (Homo sapiens, UniProt P43220); details: for GLP-1 Receptor % relative activity: activity relative to the native hormone at the indicated receptor
Protocol: as §1, §2

GLP-1 receptor [2] = target: T3, GLP-1 receptor; assay: cell-based
Protocol: as §1, §2

[3] = Table 35, relative to the native hormone

T1 sequence (P47871 26-477): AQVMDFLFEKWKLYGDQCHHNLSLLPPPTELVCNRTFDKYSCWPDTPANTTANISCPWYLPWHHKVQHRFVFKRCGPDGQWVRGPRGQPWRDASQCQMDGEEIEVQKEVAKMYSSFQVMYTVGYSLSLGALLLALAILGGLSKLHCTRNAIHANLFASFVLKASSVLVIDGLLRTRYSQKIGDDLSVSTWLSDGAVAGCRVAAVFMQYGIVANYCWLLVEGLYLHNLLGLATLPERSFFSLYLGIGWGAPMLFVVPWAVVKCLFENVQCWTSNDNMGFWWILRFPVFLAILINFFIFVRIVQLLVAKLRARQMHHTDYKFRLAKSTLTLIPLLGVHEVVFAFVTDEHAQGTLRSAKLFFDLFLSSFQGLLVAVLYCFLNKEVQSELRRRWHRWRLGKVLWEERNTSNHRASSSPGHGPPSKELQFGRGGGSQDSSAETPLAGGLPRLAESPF
T3 sequence (P43220 24-463, species assumed): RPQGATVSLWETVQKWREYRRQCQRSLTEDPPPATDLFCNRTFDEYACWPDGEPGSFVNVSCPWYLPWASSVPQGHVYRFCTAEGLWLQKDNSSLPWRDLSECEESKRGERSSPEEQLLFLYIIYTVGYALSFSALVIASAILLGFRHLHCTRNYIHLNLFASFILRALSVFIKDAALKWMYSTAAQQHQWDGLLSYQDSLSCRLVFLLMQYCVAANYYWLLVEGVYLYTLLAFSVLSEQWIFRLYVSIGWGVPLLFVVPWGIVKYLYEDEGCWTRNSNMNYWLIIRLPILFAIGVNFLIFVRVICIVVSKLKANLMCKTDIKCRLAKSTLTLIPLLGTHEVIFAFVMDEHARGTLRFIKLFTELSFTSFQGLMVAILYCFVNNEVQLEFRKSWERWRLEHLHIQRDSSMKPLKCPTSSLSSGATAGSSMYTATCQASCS

Row | Structure (SMILES) | Glucagon Receptor % relative activity (glucagon receptor) | EC50 (glucagon receptor) | GIP Receptor % relative activity (GIP receptor) | EC50 (GIP receptor) | GLP-1 Receptor % relative activity (GLP-1 receptor [1]) | EC50 (GLP-1 receptor [2]) | % Relative activity at the Receptor for Glucagon (glucagon receptor; [3]) | % Relative activity at the Receptor for GIP (GIP receptor; [3]) | % Relative activity at the Receptor for GLP-1 (GLP-1 receptor [1]; [3])
1 | CC[C@H](C)[C@H](NC(=O)[C@H](Cc1ccccc1)NC(=O)[C@H](CCC(=O)O)NC(=O)[C@H](CCCCN)NC(=O)[C@H](C)NC(=O)[C@H](C)NC(=O)[C@H](CCC(N)=O)NC(=O)[C@H](CCC(=O)O)NC(=O)[C@H](CC(=O)O)NC(=O)[C@H](CC(C)C)NC(=O)[C@H](Cc1ccc(O)cc1)NC(=O)[C@H](CCCCN)NC(=O)[C@H](CO)NC(=O)[C@H](Cc1ccc(O)cc1)NC(=O)[C@H](CC(=O)O)NC(=O)[C@H](CO)NC(=O)[C@@H](NC(=O)[C@H](Cc1ccccc1)NC(=O)[C@@H](NC(=O)CNC(=O)[C@H](CCC(N)=O)NC(=O)C(C)(C)NC(=O)[C@@H](N)Cc1c[nH]cn1)[C@@H](C)O)[C@@H](C)O)C(=O)N[C@@H](C)C(=O)N[C@@H](Cc1c[nH]c2ccccc12)C(=O)N[C@@H](CC(C)C)C(=O)N[C@@H](CCSC)C(=O)N[C@@H](CC(N)=O)C(=O)NCC(=O)NCC(=O)N1CCC[C@H]1C(=O)N[C@@H](CO)C(=O)N[C@@H](CO)C(=O)NCC(=O)N[C@@H](C)C(=O)N1CCC[C@H]1C(=O)N1CCC[C@H]1C(=O)N1CCC[C@H]1C(=O)N[C@@H](CO)C(=O)N[C@@H](CCCCN)C(N)=O [mt-363] | 7.76% | 0.823 nM | 0.73% | 0.425 nM | 671.66% | 0.0037 nM |  |  | 
2 | CC[C@H](C)[C@H](NC(=O)[C@H](Cc1ccccc1)NC(=O)[C@H](CCC(=O)O)NC(=O)[C@H](CCCCN)NC(=O)[C@H](C)NC(=O)[C@H](C)NC(=O)[C@H](CCC(N)=O)NC(=O)[C@H](CCC(=O)O)NC(=O)[C@H](CC(=O)O)NC(=O)[C@H](CC(C)C)NC(=O)[C@H](Cc1ccc(O)cc1)NC(=O)[C@H](CCCCN)NC(=O)[C@H](CO)NC(=O)[C@H](Cc1ccc(O)cc1)NC(=O)[C@H](CC(=O)O)NC(=O)[C@H](CO)NC(=O)[C@@H](NC(=O)[C@H](Cc1ccccc1)NC(=O)[C@@H](NC(=O)CNC(=O)[C@H](CCC(N)=O)NC(=O)C(C)(C)NC(=O)[C@@H](N)Cc1c[nH]cn1)[C@@H](C)O)[C@@H](C)O)C(=O)N[C@@H](CS)C(=O)N[C@@H](Cc1c[nH]c2ccccc12)C(=O)N[C@@H](CC(C)C)C(=O)N[C@@H](CCSC)C(=O)N[C@@H](CC(N)=O)C(=O)NCC(=O)NCC(=O)N1CCC[C@H]1C(=O)N[C@@H](CO)C(=O)N[C@@H](CO)C(=O)NCC(=O)N[C@@H](C)C(=O)N1CCC[C@H]1C(=O)N1CCC[C@H]1C(=O)N1CCC[C@H]1C(=O)N[C@@H](CO)C(=O)N[C@@H](CCCCN)C(N)=O [mt-346] | 3.70% | 0.954 nM | 0.34% | 0.796 nM | 366.67% | 0.0015 nM |  |  | 
3 | CCCCCCCCCCCCCC(=O)NCCCC[C@H](NC(=O)[C@H](CO)NC(=O)[C@@H]1CCCN1C(=O)[C@@H]1CCCN1C(=O)[C@@H]1CCCN1C(=O)[C@H](C)NC(=O)CNC(=O)[C@H](CO)NC(=O)[C@H](CO)NC(=O)[C@@H]1CCCN1C(=O)CNC(=O)CNC(=O)[C@H](CC(N)=O)NC(=O)[C@H](CCSC)NC(=O)[C@H](CC(C)C)NC(=O)[C@H](Cc1c[nH]c2ccccc12)NC(=O)[C@H](CS)NC(=O)[C@@H](NC(=O)[C@H](Cc1ccccc1)NC(=O)[C@H](CCC(=O)O)NC(=O)[C@H](CCCCN)NC(=O)[C@H](C)NC(=O)[C@H](C)NC(=O)[C@H](CCC(N)=O)NC(=O)C(C)(C)NC(=O)[C@H](CC(=O)O)NC(=O)[C@H](CC(C)C)NC(=O)[C@H](Cc1ccc(O)cc1)NC(=O)[C@H](CCCCN)NC(=O)[C@H](CO)NC(=O)[C@H](Cc1ccc(O)cc1)NC(=O)[C@H](CC(=O)O)NC(=O)[C@H](CO)NC(=O)[C@@H](NC(=O)[C@H](Cc1ccccc1)NC(=O)[C@@H](NC(=O)CNC(=O)[C@H](CCC(N)=O)NC(=O)C(C)(C)NC(=O)[C@@H](N)Cc1c[nH]cn1)[C@@H](C)O)[C@@H](C)O)[C@@H](C)CC)C(N)=O [mt-347] (H-H[Aib]QGTFTSDYSKYLD[Aib]QAAKEFICWLMNGGPSSGAPPPSK(Myristoyl)-NH2; N-terminus assumed) | 111.36% |  | 0.70% |  | 67.07% |  | 111% | 0.7% | 67%
